One may read the IC50 as the concentration that inhibits the measured activity by half. Read a low IC50 as inhibition by little substance.

The target of assay [1] is human vanin-1 (Homo sapiens (Human), UniProt O95497). The assay can be described thus: Human Vanin-1 Enzyme Assay 1. The class given is biochemical. The note with it: 25 pM human vanin-1, 50 uM pantetheine 7-amino-4-trifluoromethylcoumarin substrate. The method, then: Human Vanin-1Enzyme Assay 1.
The in vitro assay measures enzymatic cleavage of the fluorescently-labeled vanin substrate, pantetheine 7-amino-4-trifluoromethylcoumarin, by human vanin-1.
The vanin-1 protein was prepared in-house from a construct expressing the extracellular domain of human vanin-1 (GenBank ID NM_004666) preceded N-terminally by the honey bee melittin signal peptide, a GSG linker sequence, a His6× tag and a FLAG tag. The secreted, soluble enzyme was purified from the conditioned medium from a CHO cell line stably expressing the resulting protein. Enzyme purification was performed through sequential Ni NTA and size-exclusion chromatography steps.
Intermediate concentrations were prepared by diluting in DMSO in a four-fold series for a total of 11 data points.
To begin the assay 100 nL was transferred from the compound plate to the assay plate. Next, 15 μL of the vanin-1 working solution were transferred to the assay plate. The inhibitor and enzyme were incubated at room temperature for 30 minutes. The enzyme reaction was then initiated by the addition of 5 μL of 200 μM pantetheine 7-amino-4-trifluoromethylcoumarin prepared in assay buffer. […] The final concentration of DMSO was 0.5%.

Assay [2] addresses human vanin-1 present in human plasma (Homo sapiens (Human), UniProt O95497). The assay is described as follows: Vanin-1 in Human Plasma Assay. The note with it: 50% pooled human plasma, 50 uM substrate. Format: biochemical. The method, then: Vanin-1 in Human Plasma Assay.
The in vitro assay measures enzymatic cleavage of the fluorescently-labeled vanin substrate, pantetheine 7-amino-4-trifluoromethylcoumarin, by human vanin-1 present in human plasma.
Human plasma was prepared from whole blood drawn from healthy donors, collected in tubes containing sodium heparin. The plasma fractions were separated from the whole blood by centrifugation for 10 minutes at 2000×g and pooled.
The test inhibitors were solubilized in DMSO to a stock concentration of 30 mM. On the day of the assay, dose response plates were prepared by diluting the inhibitors in DMSO to a compound concentration 200-fold the final in-assay concentration. Concentration series were prepared by serially diluting in 100% DMSO in a three-fold series. […] From this intermediate compound plate, 10 μL were transferred to the assay plate and mixed with 20 uL of the pooled human plasma. The inhibitor and enzyme were co-incubated at room temperature for 30 minutes. The enzyme reaction was initiated by the addition of 10 μL of 200 uM pantetheine 7-amino-4-trifluoromethylcoumarin prepared in assay buffer. The final concentrations in the assay were 50% plasma, and 50 uM substrate. The final concentration of DMSO was 0.5%. Datapoints were measured over time using a Tecan Safire 2 platereader at 405 nm excitation wavelength and a 510 nm emission wavelength for detection.

human vanin-1, sequence (O95497 22-491): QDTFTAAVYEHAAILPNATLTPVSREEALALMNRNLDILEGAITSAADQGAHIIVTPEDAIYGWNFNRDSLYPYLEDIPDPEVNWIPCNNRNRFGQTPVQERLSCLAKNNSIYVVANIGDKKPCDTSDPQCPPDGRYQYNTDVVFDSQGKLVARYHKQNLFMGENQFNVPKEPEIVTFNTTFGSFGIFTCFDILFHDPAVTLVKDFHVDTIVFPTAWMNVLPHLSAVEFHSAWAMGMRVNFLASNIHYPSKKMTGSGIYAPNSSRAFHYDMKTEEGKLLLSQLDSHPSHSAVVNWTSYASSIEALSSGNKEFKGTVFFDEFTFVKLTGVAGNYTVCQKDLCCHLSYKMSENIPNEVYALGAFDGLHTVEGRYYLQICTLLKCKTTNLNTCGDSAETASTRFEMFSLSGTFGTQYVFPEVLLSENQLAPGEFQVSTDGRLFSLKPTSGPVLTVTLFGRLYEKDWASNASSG
human vanin-1 present in human plasma, sequence (O95497 22-491): as above

Consider `O=C(c1cnc(NC2(c3cncnc3)CC2)nc1)N1CCC(C(F)(F)F)C1` (single isomer, unassigned) [Example 193], for which the IC50 in assay [1] amounted to 7.12 nM; in assay [2], 5.39 nM.
Take `N#CC1CCCN(C(=O)c2cnc(NC3(c4cncnc4)CC3)nc2)C1` (single isomer, unassigned) [Example 196]: the values for the IC50 in assay [1] and in assay [2] were 1180 nM and more than 793 nM, respectively.
Turning to `CS(=O)(=O)C1CCCN(C(=O)c2cnc(NC3(c4cncnc4)CC3)nc2)C1` (single isomer, unassigned) [Example 200], the values for the IC50 in assay [1] and in assay [2] were 10.6 nM and 32.6 nM, respectively.
With `O=C(c1cnc(NC2(c3cncnc3)CC2)nc1)N1CCC2(CC1)COC2` [Example 59], the IC50 was found to be 47.4 nM in assay [1] and 49.2 nM in assay [2].
With `O=C(c1cnc(NC2(c3cncnc3)CC2)nc1)N1CCCC(F)(F)C1` [Example 70], the IC50 is 175 nM in assay [1] and 205 nM in assay [2].
`O=C(c1cnc(NC2(c3cncnc3)CC2)nc1)N1CCCC1` [Example 87]: the IC50 worked out at 79.8 nM in assay [1] and 68 nM in assay [2].
On to `COC1CCCN(C(=O)c2cnc(NC3(c4cncnc4)CC3)nc2)C1` (stereo not drawn) [Example 96], for which the figures for the IC50 in assay [1] and in assay [2] were 10.9 nM and 9.86 nM, respectively.
`CC1(CO)CCCN(C(=O)c2cnc(NC3(c4cncnc4)CC3)nc2)C1` (stereo not drawn) [Example 108]: the figures for the IC50 in assay [1] and in assay [2] were 387 nM and 452 nM, respectively.
As to `O=C(c1cnc(NC2(c3cnccn3)CCC2)nc1)N1CCC2(CCOCC2)C1` [Example 130, 8-oxa-2-azaspiro[4.5]dec-2-yl(2-{[1-(pyrazin-2-yl)cyclobutyl]amino}pyrimidin-5-yl)methanone], the IC50 in assay [1] is less than 0.041 nM; in assay [2], 0.743 nM.
In the case of `CC(C)(Nc1ncc(C(=O)N2CC3(CCOCC3)C2)cn1)c1cnccn1` [Example 131, 7-oxa-2-azaspiro[3.5]non-2-yl(2-{[2-(pyrazin-2-yl)propan-2-yl]amino}pyrimidin-5-yl)methanone], the IC50 was less than 0.094 nM in assay [1] and 0.838 nM in assay [2].
For the molecule `O=C(c1cnc(NC2(c3cncnc3)COC2)nc1)N1CCC2(CCOCC2)C1` [Example 133], the IC50 in assay [1] was determined as 0.43 nM; in assay [2], 0.524 nM.
Take `O=C(c1cnc(NC2(c3cncnc3)COC2)nc1)N1CC2(CCOCC2)C1` [Example 134]: the IC50 in assay [1] was determined as 0.504 nM.
`O=C(c1cnc(NCc2cnccn2)nc1)N1CC2(CCOCC2)C1` [Example 135]: the IC50 was 3.38 nM in assay [1] and 3.7 nM in assay [2].
As for `Cc1nc(NC2(c3cncnc3)CC2)ncc1C(=O)N1CCC2(CCOCC2)C1` [Example 136], the IC50 in assay [1] was 2330 nM. That is a single-digit micromolar value.
Take `Cc1ccc(CNc2ncc(C(=O)N3CCC4(CCOCC4)C3)cn2)cn1` [Example 137]: the IC50 in assay [1] is 5.24 nM; in assay [2], 5.02 nM.
Turning to `O=C(c1cnc(NC2(c3cnccn3)CCC2)nc1)N1CC2(CCOCC2)C1` [Example 138], half-maximal inhibition in assay [1] (IC50) was put at 0.043 nM.
As for `Cc1nc(NCc2cnccn2)ncc1C(=O)N1CCC2(CCOCC2)C1` [Example 139], in assay [1], the IC50 was more than 17600 nM.
With `Cc1ccc([C@H](C)Nc2ncc(C(=O)N3CCC4(CCOCC4)C3)cn2)cn1` [Example 140], the IC50 in assay [1] was found to be 0.283 nM; in assay [2] it was 0.95 nM.
The molecule `Cc1ccc([C@@H](C)Nc2ncc(C(=O)N3CCC4(CCOCC4)C3)cn2)cn1` [Example 141] came in with an IC50 in assay [1] of 87.3 nM.
`CC(C)(Nc1ncc(C(=O)N2CCC3(CCOCC3)C2)cn1)c1cncnc1` [Example 143, 8-oxa-2-azaspiro[4.5]dec-2-yl(2-{[2-(pyrimidin-5-yl)propan-2-yl]amino}pyrimidin-5-yl)methanone]: the figures for the IC50 in assay [1] and in assay [2] were 0.082 nM and 1.22 nM, respectively.
With `CC(C)(Nc1ncc(C(=O)N2CC3(CCOCC3)C2)cn1)c1cncnc1` [Example 144], the IC50 in assay [1] stood at 0.743 nM.
In assay [1], `C[C@@H](Nc1ncc(C(=O)N2CC3(CCOCC3)C2)cn1)c1cnccn1` [Example 148] returned an IC50 of 54.5 nM.
Still for that read-out and setting: the result for `C[C@H](Nc1ncc(C(=O)N2CC3(CCOCC3)C2)cn1)c1cncnc1` [Example 151] reads 0.955 nM; that for `C[C@@H](Nc1ncc(C(=O)N2CC3(CCOCC3)C2)cn1)c1cncnc1` [Example 152], 91.3 nM; that for `C[C@H](Nc1ncc(C(=O)N2CCC3(CCOCC3)C2)cn1)c1ccnnc1` [Example 153], 4.29 nM.
On the same count and under the same terms, the result for `C[C@@H](Nc1ncc(C(=O)N2CCC3(CCOCC3)C2)cn1)c1ccnnc1` [Example 154] reads 337 nM; that for `C[C@@H](Nc1ncc(C(=O)N2CCC3(CCOCC3)C2)cn1)c1ccncn1` [Example 156], 838 nM; that for `Cc1ncc(C(C)Nc2ncc(C(=O)N3CCC4(CCOCC4)C3)cn2)cn1` (stereo not drawn) [Example 159], 1.29 nM.
As to `Cc1ncc(C(C)Nc2ncc(C(=O)N3CC4(CCOCC4)C3)cn2)cn1` (stereo not drawn) [Example 160], the IC50 in assay [1] was determined as 2.84 nM.
Still for that read-out and setting: the value for `Cc1ccc(C(C)Nc2ncc(C(=O)N3CCC4(CCOCC4)C3)cn2)nc1` (stereo not drawn) [Example 161] was 8.06 nM; that for `Cc1ccc(C(C)Nc2ncc(C(=O)N3CC4(CCOCC4)C3)cn2)cn1` (stereo not drawn) [Example 163] was 1.77 nM; that for `Cc1cnc(CNc2ncc(C(=O)N3CCC4(CCOCC4)C3)cn2)cn1` [Example 164] was 27.3 nM.
Consider `Cc1cnc(CNc2ncc(C(=O)N3CC4(CCOCC4)C3)cn2)cn1` [Example 165], for which, in assay [1], the IC50 is 26.3 nM.
As for `O=C(c1cnc(NCc2cncnc2C(F)(F)F)nc1)N1CC2(CCOCC2)C1` [Example 167], the IC50 in assay [1] amounted to 57.7 nM.
Turning to `O=C(c1cnc(NCc2cnc(C(F)(F)F)nc2)nc1)N1CCC2(CCOCC2)C1` [Example 168], the IC50 in assay [1] came to 192 nM.
Regarding `O=C(c1cnc(NCc2cnc(C(F)(F)F)nc2)nc1)N1CC2(CCOCC2)C1` [Example 169], the IC50 in assay [1] turned out to be 158 nM.
On the same count and under the same terms, the result for `Cc1ncc(CNc2ncc(C(=O)N3CC4(CCOCC4)C3)cn2)cn1` [Example 171] reads 7.33 nM.
Molecule `Cc1ccc(C2(Nc3ncc(C(=O)N4CCC5(CCOCC5)C4)cn3)CC2)cn1` [Example 175] showed an IC50 in assay [1] of 0.24 nM.
Same read-out and setting: the result for `Cc1ccc(C2(Nc3ncc(C(=O)N4CC5(CCOCC5)C4)cn3)CC2)cn1` [Example 176] reads 0.911 nM.
The same measure, in the same setting: the value for `O=C(c1cnc(NC2(c3ccccn3)CC2)nc1)N1CCC2(CCOCC2)C1` [Example 177] was 0.551 nM; that for `O=C(c1cnc(NC2(c3ncccn3)CC2)nc1)N1CCC2(CCOCC2)C1` [Example 178] was 2.18 nM; that for `Cc1cnc(C(C)(C)Nc2ncc(C(=O)N3CC4(CCOCC4)C3)cn2)cn1` [Example 180] was 0.196 nM.
In assay [1], `O=C(c1cnc(NCCc2cncnc2)nc1)N1CCC2(CCOCC2)C1` [Example 181] gave an IC50 of 200 nM.
The same measure, in the same setting: the result for `CC(Nc1ncc(C(=O)N2CCC3(CCOCC3)C2)cn1)c1cncnc1` (stereo not drawn) [Example 183] reads 0.745 nM.
In assay [1], `O=C(c1cnc(NCc2cncnc2)nc1)N1CCC2(CCOCC2)C1` [Example 185] showed an IC50 of 7.71 nM.
Turning to `O=C(c1cnc(NCc2cncnc2)nc1)N1CCCCC1` [Example 187], 83.7 nM corresponded to half-maximal inhibition in assay [1] (IC50).
Still for that read-out and setting: the value for `O=C(c1cnc(NC2(c3cncnc3)CC2)nc1)N1CC2(CCOCC2)C1` [Example 189] was 0.867 nM; that for `CC1(C)CCN(C(=O)c2cnc(NC3(c4cncnc4)CC3)nc2)C1` [Example 191] was 1.57 nM.
The same measure, in the same setting: the value for `CCC1(OC)CCN(C(=O)c2cnc(NC3(c4cncnc4)CC3)nc2)C1` (stereo not drawn) [Example 192] was 2.21 nM.
With `N#CC1CCCN(C(=O)c2cnc(NC3(c4cncnc4)CC3)nc2)C1` (stereo not drawn) [Example 195], the IC50 in assay [1] worked out at 10.7 nM.
Still for that read-out and setting: the result for `CS(=O)(=O)C1CCCN(C(=O)c2cnc(NC3(c4cncnc4)CC3)nc2)C1` (stereo not drawn) [Example 198] reads 20.5 nM; that for `O=C(c1cnc(OCc2cncnc2)nc1)N1CCC2(CCOCC2)C1` [Example 203, 8-oxa-2-azaspiro[4.5]dec-2-yl[2-(pyrimidin-5-ylmethoxy)pyrimidin-5-yl]methanone], 1090 nM; that for `O=C(Nc1ncc(C(=O)N2CCC3(CCOCC3)C2)cn1)c1cnccn1` [Example 204, N-[5-(8-oxa-2-azaspiro[4.5]dec-2-ylcarbonyl)pyrimidin-2-yl]pyrazine-2-carboxamide], 5160 nM.
Take `O=C(Nc1ncc(C(=O)N2CCC3(CCOCC3)C2)cn1)c1cncnc1` [Example 205, N-[5-(8-oxa-2-azaspiro[4.5]dec-2-ylcarbonyl)pyrimidin-2-yl]pyrimidine-5-carboxamide]: the IC50 in assay [1] worked out at 8800 nM.
